This is an account of results in US8815903B2, “Indole derivative and pharmacologically acceptable salt thereof” (Kissei Pharmaceutical Co., Ltd., priority 2011, dated 2014).

One may read the IC50 as the concentration that gives 50% inhibition.

The structures appear in SMILES notation.

In the experiment the target is T1, rat EP1 receptor (Rattus norvegicus, UniProt P70597).
T1 construct: expressed in transfected cells
T1 sequence (P70597 1-405): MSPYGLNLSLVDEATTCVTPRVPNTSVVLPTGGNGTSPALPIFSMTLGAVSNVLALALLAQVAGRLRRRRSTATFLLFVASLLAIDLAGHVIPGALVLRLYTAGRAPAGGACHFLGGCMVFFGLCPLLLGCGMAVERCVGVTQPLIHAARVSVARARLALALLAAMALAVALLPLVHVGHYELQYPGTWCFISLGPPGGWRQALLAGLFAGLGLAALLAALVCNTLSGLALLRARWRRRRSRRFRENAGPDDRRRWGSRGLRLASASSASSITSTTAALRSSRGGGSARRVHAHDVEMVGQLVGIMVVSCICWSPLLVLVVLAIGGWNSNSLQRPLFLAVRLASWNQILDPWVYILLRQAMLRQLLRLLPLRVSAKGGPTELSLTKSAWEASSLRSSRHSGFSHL
The experiment is described as follows: Test for confirmation of EP1 receptor antagonism (inhibition of PGE2-induced increase in intracellular calcium concentration). In kind it is cell-based. Particulars: rat EP1 receptor-expressing COS-1 cells; prostaglandin E2 10 nM; fluorescent calcium indicator, FDSS 7000. The procedure:
Test for Confirmation of EP1 Receptor Antagonism
(1) Preparation of Rat EP1 Expression Vector
Using Rat Kidney BD Marathon-Ready cDNA (Nippon Becton Dickinson Company, Ltd.) as a template, a forward primer shown in (SEQ ID NO:1), and a reverse primer shown in (SEQ ID NO:2), a first run of PCR was carried out using KOD-Plus-Ver 2.0 (Toyobo Co., Ltd.). Further, using this amplification product as a template, a forward primer shown in (SEQ ID NO:3), and a reverse primer shown in (SEQ ID NO:4), a second run of PCR was carried out in the same manner. The amplification product obtained by the second run of PCR was incorporated into a vector (pcDNA3.1 D/V5-His-TOPO (registered trademark), Invitrogen Japan K. K.). By a conventional method, the vector containing this amplification product was introduced to E. coli (One Shot TOP 10 Competent Cells, Invitrogen Corporation) to transform. This transformed E. coli was cultured in an LB agar medium for one day. After the culture, colonies were selected and cultured in an LB liquid medium containing 50 μg/mL of ampicillin. After the culture, the vector was purified using a QIAprep Spin Miniprep Kit (Qiagen K. K.). The base sequence of the insertion site of this vector (SEQ ID NO:5) was compared with the rat EP1 base sequence (Ptger1) registered as Accession No. NM_013100 in publicly-known database (NCBI), and as a result, they all matched except for a single base. Further, the amino acid sequence translated by the base sequence completely matched the amino acid sequence of the rat EP1 receptor registered as an NCBI Accession No. NP_037232. Therefore, it was confirmed that the cloned gene sequence was a base sequence of the rat EP1 receptor and the obtained amino acid sequence was that of the rat EP1 receptor. The pcDNA3.1 D/V5-His-TOPO (registered trademark) to which the nucleic acid shown in (SEQ ID NO:5) had been inserted was taken as a rat EP1-expressing vector.
(2) Preparation of Rat EP1 Receptor-Expressing Cells
COS-1 cells (Dainippon Sumitomo Pharma Co., Ltd.) were cultured until they reached confluence in an incubator at 37° C. under a 5% CO2 gas condition, using a D-MEM liquid medium (high glucose and L-glutamine contained, Invitrogen Corporation) to which a penicillin-streptomycin solution (Invitrogen Corporation, final concentration: 100 U/mL as benzylpenicillin; 100 μg/mL as streptomycin) as an antibiotic, MEM nonessential amino acids (Invitrogen Corporation, final concentration: 0.1 mM), and fetal calf serum (Sanko Junyaku Co., Ltd., final concentration: 10%) were added.
The cells that had reached confluence were stripped with 0.05% trypsin/0.53 mM EDTA.4Na, and resuspended in a D-MEM liquid medium (high glucose and L-glutamine contained, Invitrogen Corporation) to which an MEM nonessential amino acid (final concentration: 0.1 mM) and fetal calf serum (final concentration: 10%) were added. In each well of a Poly D-lysine-coated 96-well microplate (BD BioCoat (registered trademark), Nippon Becton Dickinson Company, Ltd.), this resuspended cell suspension culture was prepared to be 5×10^4 cells/well in 100 μL of the liquid medium, and 100 μL of the cell suspension was seeded on each well. After seeding, the cells were cultured in an incubator at 37° C. under a 5% CO2 gas condition. At a point when the cells for introduction of a rat EP1-expressing vector were adhered (about 2 hours after seeding), introduction of the rat EP1-expressing vector was carried out in the following order.
For introduction of the rat EP1-expressing vector, Lipofectamine 2000 (Invitrogen Japan K. K.) was used. The rat EP1-expressing vector was diluted with OPTI-MEM (registered trademark) I Reduced-Serum Medium (Invitrogen Japan K. K.) to 200 ng/25 μL/well, and at the same time, Lipofectamine 2000 (Invitrogen Japan K. K.) was also diluted with OPTI-MEM (registered trademark) I Reduced-Serum Medium (Invitrogen Japan K. K.) to 0.5 μL/25 μL/well, followed by incubation at room temperature for 5 minutes. […]
(A change in cytosolic calcium serves as a functional read-out for many receptors and channels.)

Consider `COc1ccc2c(Cc3cccc(C(=O)NS(C)(=O)=O)n3)c(-c3ccsc3)[nH]c2c1` [Example 1, N-Methanesulfonyl-6-(6-methoxy-2-thiophen-3-yl-1H-indol-3-ylmethyl)pyridine-2-carboxamide], for which the IC50 turned out to be 0.099 µM. On to `COc1ccc2c(Cc3cccc(C(=O)NS(=O)(=O)c4ccccc4)n3)c(-c3ccccc3)[nH]c2c1` [Example 3-3], for which the IC50 is 0.03 µM. In the case of `CCCS(=O)(=O)NC(=O)c1cccc(Cc2c(-c3ccccc3)[nH]c3cc(OC)ccc23)n1` [Example 3-4] it was 0.039 µM; in that of `CCCS(=O)(=O)NC(=O)c1cccc(Cc2c(C(C)(C)C)[nH]c3cc(OC)c(Cl)cc23)n1` [Example 3-5], 0.055 µM.

Take `CCS(=O)(=O)NC(=O)c1cccc(Cc2c(C(C)(C)C)[nH]c3cc(OC)c(Cl)cc23)n1` [Example 3-7]: the IC50 was determined as 0.033 µM. The result for `COc1ccc2c(Cc3cccc(C(=O)NS(=O)(=O)C4CC4)n3)c(-c3ccccc3)[nH]c2c1` [Example 3-10] reads 0.047 µM. With `COc1ccc2c(Cc3cccc(C(=O)NS(=O)(=O)c4ccccc4)n3)c(C(C)(C)C)[nH]c2c1` [Example 3-11], the IC50 stood at 0.017 µM. In the case of `Cc1ccc2c(Cc3cccc(C(=O)NS(C)(=O)=O)n3)c(-c3ccsc3)[nH]c2c1` [Example 3-12] it was 0.027 µM. The result for `COc1ccc2c(Cc3cccc(C(=O)NS(=O)(=O)C(C)C)n3)c(-c3ccccc3)[nH]c2c1` [Example 3-13] reads 0.027 µM; that for `COc1ccc2c(Cc3cccc(C(=O)NS(C)(=O)=O)n3)c(-c3ccc(F)cc3)[nH]c2c1` [Example 3-14], 0.088 µM. In the case of `CCS(=O)(=O)NC(=O)c1cccc(Cc2c(-c3ccc(F)cc3)[nH]c3cc(OC)ccc23)n1` [Example 3-15] it was 0.027 µM.

Turning to `COc1ccc2c(Cc3cccc(C(=O)NS(C)(=O)=O)n3)c(-c3csc(C)c3)[nH]c2c1` [Example 3-20], the IC50 came out at 0.068 µM. Consider `CCS(=O)(=O)NC(=O)c1cccc(Cc2c(-c3csc(C)c3)[nH]c3cc(OC)ccc23)n1` [Example 3-21], for which the IC50 was determined as 0.086 µM. The result for `CCS(=O)(=O)NC(=O)c1cccc(Cc2c(-c3ccoc3)[nH]c3cc(OC)ccc23)n1` [Example 3-23] reads 0.058 µM; that for `CCS(=O)(=O)NC(=O)c1cccc(Cc2c(-c3ccccc3)[nH]c3cc(Cl)ccc23)n1` [Example 3-24], 0.058 µM.

For `CS(=O)(=O)NC(=O)c1cccc(Cc2c(-c3ccccc3)[nH]c3cc(Cl)ccc23)n1` [Example 3-25], the IC50 came to 0.078 µM. As for `Cc1cc2[nH]c(-c3ccccc3)c(Cc3cccc(C(=O)NS(C)(=O)=O)n3)c2cc1C` [Example 3-30], the IC50 was 0.043 µM. For the compound `CCS(=O)(=O)NC(=O)c1cccc(Cc2c(-c3ccccc3)[nH]c3cc(C)c(C)cc23)n1` [Example 3-31], the IC50 is 0.047 µM. Take `CCS(=O)(=O)NC(=O)c1cccc(Cc2c(-c3ccccc3)[nH]c3cc(OC)c(F)cc23)n1` [Example 3-32]: the IC50 was 0.051 µM.

For `CCS(=O)(=O)NC(=O)c1cccc(Cc2c(-c3ccccc3)[nH]c3cc(C4CC4)ccc23)n1` [Example 3-33], the IC50 amounted to 0.066 µM. In the case of `CCS(=O)(=O)NC(=O)c1cccc(Cc2c(-c3ccccc3)[nH]c3cc(C)ccc23)n1` [Example 3-34] it was 0.04 µM; in that of `COc1ccc2c(Cc3cccc(-c4nnn[nH]4)n3)c(-c3ccsc3)[nH]c2c1` [Example 5-4], 0.012 µM; in that of `COc1ccc2c(Cc3cccc(-c4nnn[nH]4)c3)c(-c3ccccc3)[nH]c2c1` [Example 5-6], 0.045 µM.

Consider `COc1cc2[nH]c(-c3ccccc3)c(Cc3cccc(-c4nnn[nH]4)n3)c2cc1F` [Example 5-8], for which the IC50 amounted to 0.012 µM. In the case of `COc1ccc2c(Cc3cccc(-c4nnn[nH]4)n3)c(-c3ccc(F)cc3)[nH]c2c1` [Example 5-9] it was 0.022 µM. In the case of `COc1ccc2c(Cc3cccc(-c4nnn[nH]4)n3)c(-c3cccnc3)[nH]c2c1` [Example 5-10] it was 0.013 µM; in that of `COc1ccc2c(Cc3cccc(-c4nnn[nH]4)n3)c(-c3csc(C)c3)[nH]c2c1` [Example 5-12], 0.026 µM.

Consider `Cc1ccc2c(Cc3cccc(-c4nnn[nH]4)n3)c(-c3ccsc3)[nH]c2c1` [Example 5-13], for which the IC50 is 0.03 µM. In the case of `COc1ccc2c(Cc3cccc(-c4noc(=S)[nH]4)n3)c(-c3ccccc3)[nH]c2c1` [Example 9, 3-[6-(6-Methoxy-2-phenyl-1H-indol-3-ylmethyl)pyridin-2-yl]-4,5-dihydro-1,2,4-oxadiazole-5-thione] it was 0.05 µM.

With `COc1ccc2c(Cc3cccc(-c4noc(=O)[nH]4)n3)c(-c3ccoc3)[nH]c2c1` [Example 12-1], the IC50 stood at 0.023 µM. The result for `COc1ccc2c(Cc3cccc(-c4noc(=O)[nH]4)n3)c(C(C)(C)C)[nH]c2c1` [Example 12-2] reads 0.043 µM; that for `COc1cc2[nH]c(-c3ccccc3)c(Cc3cccc(-c4noc(=O)[nH]4)n3)c2cc1F` [Example 12-5], 0.046 µM; that for `O=c1[nH]c(-c2cccc(Cc3c(-c4ccccc4)[nH]c4cc(C5CC5)ccc34)n2)no1` [Example 12-6], 0.04 µM. In the case of `Cc1cc2[nH]c(-c3ccccc3)c(Cc3cccc(-c4noc(=O)[nH]4)n3)c2cc1C` [Example 12-7] it was 0.028 µM; in that of `Cc1ccc2c(Cc3cccc(-c4noc(=O)[nH]4)n3)c(-c3ccsc3)[nH]c2c1` [Example 12-9], 0.034 µM; in that of `Cc1ccc2c(Cc3cccc(C(=O)NC#N)n3)c(-c3ccccc3)[nH]c2c1` [Example 16-1], 0.054 µM.

Regarding `COc1ccc2c(Cc3cccc(C(=O)NC#N)n3)c(C(C)(C)C)[nH]c2c1` [Example 16-2], the IC50 was 0.048 µM.

On to `COc1cc2[nH]c(-c3ccccc3)c(Cc3cccc(C(=O)NC#N)n3)c2cc1F` [Example 16-3], for which the IC50 turned out to be 0.024 µM.

With `COc1cc2[nH]c(C(C)(C)C)c(Cc3cccc(C(=O)NC#N)n3)c2cc1Cl` [Example 16-5], the IC50 was 0.046 µM.

As to `Cc1ccc2c(Cc3cccc(C(=O)NC#N)n3)c(-c3ccsc3)[nH]c2c1` [Example 16-6], the IC50 amounted to 0.036 µM.

In the case of `Cc1cc2[nH]c(-c3ccccc3)c(Cc3cccc(-c4nnn[nH]4)n3)c2cc1C` [Example 17-3], the IC50 came to 0.02 µM. In the case of `COc1cc2[nH]c(C(C)C)c(Cc3cccc(-c4nnn[nH]4)n3)c2cc1Cl` [Example 17-4] it was 0.027 µM; in that of `COc1ccc2c(Cc3cccc(-c4nnn[nH]4)n3)c(C(C)C)[nH]c2c1` [Example 17-5], 0.023 µM; in that of `COc1ccc2c(Cc3cccc(-c4nnn[nH]4)n3)c(C3CC3)[nH]c2c1` [Example 17-6], 0.031 µM. In the case of `COc1ccc2c(Cc3cccc(-c4nnn[nH]4)n3)c(C3CCCCC3)[nH]c2c1` [Example 17-7] it was 0.03 µM.
